Test results published in ChEMBL document CHEMBL1201862, “PubChem BioAssay data set” (2004).
Activity calls are given as the source filed them.

Assays:
[1] = HEp-2 cell cytotoxicity, dose response, cytotoxicity control for RSV inhibitor project, HTS (AID 2410); assay type: functional; conditions: human respiratory syncytial virus
Troponin, cardiac muscle = Troponin, cardiac muscle (Homo sapiens, UniProt P19429+P45379+P63316); assay: Fluorescence-based biochemical high throughput dose response assay for activators of the calcium sensitivity of cardiac Regulated Thin Filaments (RTF). [Related pubchem assays (depositor defined):AID493008, AID493018, AID504382, AID504383]; assay type: protein-complex assay
[2] = inhibitors of HIV Env-driven cell fusion, dose response, cherry-pick (AID 652057); assay type: functional, cell-based
BJ [3] = assay: cytotoxicity toward Ras-transformed BJeLR fibroblasts, dose response, cell-based, alamar blue fluorescence, cherrypicked samples (AID 2631); assay type: functional; conditions: Homo sapiens;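 further: confirmatory dose-response assay in RAS-dependent BJ fibroblasts engineered with TERT, LT and ST, with cytotoxicity read by fluorescence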
[4] = inhibitors of clade B AD8 Env fusion, dose response, cell-based, cherry-pick (AID 652062); assay type: functional;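 further: luciferase signal from cell-cell fusion driven by HIV-1 clade B AD8 Env; potency is for inhibitors of fusion seen as a drop in luminescence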
INS1 = assay: beta cell apoptosis inhibitors, cytokine rescue, dose response, luminescence, retest (AID 449756); assay type: functional, cell-based; conditions: Rattus norvegicus;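 further: cell death triggered by IL-1 beta plus TNF-alpha plus IFN-gamma mixture; protective hits raise ATP signal compared with cytokine alone wells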
[5] = off-target signal loss in HeLa-CEM21 co-culture – HeLa F-luc CTL cells, cherry-picked, counter-screen for HIV-1 Env fusion inhibitor project, dose response (AID 652040); assay type: functional, cell-based;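 further: potency for signal decrease marking cytotoxic or nonspecific inhibition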
BJ [6] = assay: cells; assay type: functional, cell-based; conditions: Homo sapiens
Protein RecA = molecular target: T1, Protein RecA (Mycobacterium tuberculosis, UniProt P9WHJ3); assay: Fluorescence Cell-Free Homogeneous Dose Retest to Identify Inhibitors of RecA-Intein Splicing Activity. [Related pubchem assays (depositor defined):AID2097, AID2223, AID489010, AID492950]; assay type: functional
T1 sequence (P9WHJ3 whole entry): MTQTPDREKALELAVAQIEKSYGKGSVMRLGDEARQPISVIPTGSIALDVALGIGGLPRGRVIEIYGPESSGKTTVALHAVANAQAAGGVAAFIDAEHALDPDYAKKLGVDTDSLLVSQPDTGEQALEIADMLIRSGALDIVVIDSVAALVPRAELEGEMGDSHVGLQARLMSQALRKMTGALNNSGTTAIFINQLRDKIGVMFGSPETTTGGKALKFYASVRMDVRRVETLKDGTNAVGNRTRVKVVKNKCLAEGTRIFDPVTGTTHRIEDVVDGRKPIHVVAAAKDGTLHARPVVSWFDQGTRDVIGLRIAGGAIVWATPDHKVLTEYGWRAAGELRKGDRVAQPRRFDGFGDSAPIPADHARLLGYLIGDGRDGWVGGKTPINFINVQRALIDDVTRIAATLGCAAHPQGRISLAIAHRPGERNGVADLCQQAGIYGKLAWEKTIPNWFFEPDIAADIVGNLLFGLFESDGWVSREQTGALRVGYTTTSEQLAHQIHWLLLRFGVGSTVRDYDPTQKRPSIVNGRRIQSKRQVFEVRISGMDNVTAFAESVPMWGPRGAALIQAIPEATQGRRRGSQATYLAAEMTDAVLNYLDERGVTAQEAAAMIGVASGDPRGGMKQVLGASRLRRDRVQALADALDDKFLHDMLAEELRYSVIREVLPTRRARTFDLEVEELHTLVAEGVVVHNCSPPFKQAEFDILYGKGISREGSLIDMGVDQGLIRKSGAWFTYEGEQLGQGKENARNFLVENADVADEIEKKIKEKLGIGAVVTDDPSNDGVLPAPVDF

[7] = ZM109 Env clade C HIV-1 fusion inhibitors, dose response, HeLa effector, CEM target cells, luciferase, cherry-pick (AID 652058); assay type: functional, cell-based
Nonstructural protein 1 = Nonstructural protein 1 (Influenza A virus, UniProt Q194T2); assay type: functional, Influenza A virus (A/California/07/2009(H1N1))
BJ [8] = assay: cytotoxicity toward BJ-TERT-LT-ST fibroblasts, dose response, cell-based, RAS-independent, luminescence (AID 1935); assay type: functional; conditions: Homo sapiens;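 further: BJ fibroblasts immortalized with TERT plus LT and ST oncogenes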
[9] = cytotoxicity toward DRD oncogenic fibroblasts, dose response, cell-based, non-viral oncogenic, luminescence (AID 1934); assay type: functional; conditions: Homo sapiens
[10] = molecular target: T2, Replicative DNA helicase DnaB (Mycobacterium tuberculosis, UniProt P9WMR3); assay: DnaB intein splicing inhibitors, dose response, biochemical, cell-free fluorescence (AID 449749); assay type: functional
T2 sequence (P9WMR3 whole entry): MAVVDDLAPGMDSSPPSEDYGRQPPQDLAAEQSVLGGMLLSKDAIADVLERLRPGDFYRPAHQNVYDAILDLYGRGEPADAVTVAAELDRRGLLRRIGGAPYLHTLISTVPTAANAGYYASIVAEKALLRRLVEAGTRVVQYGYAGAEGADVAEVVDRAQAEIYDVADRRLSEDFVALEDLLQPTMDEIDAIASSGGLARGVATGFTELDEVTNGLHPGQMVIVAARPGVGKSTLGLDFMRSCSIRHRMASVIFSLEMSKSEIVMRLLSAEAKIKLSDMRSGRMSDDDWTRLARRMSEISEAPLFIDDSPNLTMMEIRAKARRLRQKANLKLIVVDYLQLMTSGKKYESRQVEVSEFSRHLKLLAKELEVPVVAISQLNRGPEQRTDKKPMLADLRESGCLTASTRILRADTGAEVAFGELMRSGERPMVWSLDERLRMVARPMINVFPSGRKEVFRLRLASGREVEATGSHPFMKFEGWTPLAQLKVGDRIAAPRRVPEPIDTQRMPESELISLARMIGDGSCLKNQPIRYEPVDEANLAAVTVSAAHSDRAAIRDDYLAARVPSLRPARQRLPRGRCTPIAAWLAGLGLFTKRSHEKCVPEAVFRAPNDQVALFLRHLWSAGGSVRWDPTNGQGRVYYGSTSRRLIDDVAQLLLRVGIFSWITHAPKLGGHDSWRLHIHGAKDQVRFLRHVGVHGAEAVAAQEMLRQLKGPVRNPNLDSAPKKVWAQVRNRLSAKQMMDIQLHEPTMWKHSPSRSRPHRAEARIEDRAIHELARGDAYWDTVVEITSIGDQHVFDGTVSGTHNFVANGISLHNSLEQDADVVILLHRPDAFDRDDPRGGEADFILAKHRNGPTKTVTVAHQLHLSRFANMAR

BJ [11] = assay: cytotoxicity toward BJ-TERT fibroblasts, dose response, cell-based, RAS-independent, luminescence (AID 1933); assay type: functional; conditions: Homo sapiens
[12] = Intein inhibitors as potential Tuberculosis drugs, a cytotoxicity screen. [Related pubchem assays (depositor defined):AID2221, AID2223, AID434968, AID435010, AID449749, AID449750, AID489010]; assay type: functional
[13] = CEM21 lymphoblast cell cytotoxicity, dose response, cytotoxicity control for viral fusion inhibitor project, CellTiter-Glo luminescence, cherry-picked (AID 652042); assay type: functional, cell-based;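 further: potency for signal decrease meaning cytotoxicity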
[14] = molecular target: T3, Voltage-gated N-type calcium channel alpha-1B subunit/Amyloid beta A4 precursor protein-binding family A member 1 (Homo sapiens, UniProt Q00975+Q02410); assay type: protein assay
[15] = molecular target: T3, Voltage-gated N-type calcium channel alpha-1B subunit/Amyloid beta A4 precursor protein-binding family A member 1; assay type: protein assay; remark: listed apart in the source
[16] = molecular target: Intestinal-type alkaline phosphatase (Homo sapiens, UniProt P09923); assay: human intestinal alkaline phosphatase activators, dose response, biochemical, luminescence, uHTS hits (AID 463120); assay type: functional
[17] = molecular target: DNA dC->dU-editing enzyme APOBEC-3A (Homo sapiens, UniProt P31941); assay: Dose Response confirmation of small molecule APOBEC3A DNA Deaminase Inhibitors via a fluorescence-based single-stranded DNA deaminase assay. [Related pubchem assays (depositor defined):AID493011, AID493024]; assay type: functional
[18] = molecular target: T4, High affinity choline transporter 1 (Homo sapiens, UniProt Q9GZV3); assay: CHT inhibitors, dose response, cell-based, 5-point CRC, membrane potential dye (AID 504840); assay type: functional
T4 sequence (Q9GZV3 whole entry): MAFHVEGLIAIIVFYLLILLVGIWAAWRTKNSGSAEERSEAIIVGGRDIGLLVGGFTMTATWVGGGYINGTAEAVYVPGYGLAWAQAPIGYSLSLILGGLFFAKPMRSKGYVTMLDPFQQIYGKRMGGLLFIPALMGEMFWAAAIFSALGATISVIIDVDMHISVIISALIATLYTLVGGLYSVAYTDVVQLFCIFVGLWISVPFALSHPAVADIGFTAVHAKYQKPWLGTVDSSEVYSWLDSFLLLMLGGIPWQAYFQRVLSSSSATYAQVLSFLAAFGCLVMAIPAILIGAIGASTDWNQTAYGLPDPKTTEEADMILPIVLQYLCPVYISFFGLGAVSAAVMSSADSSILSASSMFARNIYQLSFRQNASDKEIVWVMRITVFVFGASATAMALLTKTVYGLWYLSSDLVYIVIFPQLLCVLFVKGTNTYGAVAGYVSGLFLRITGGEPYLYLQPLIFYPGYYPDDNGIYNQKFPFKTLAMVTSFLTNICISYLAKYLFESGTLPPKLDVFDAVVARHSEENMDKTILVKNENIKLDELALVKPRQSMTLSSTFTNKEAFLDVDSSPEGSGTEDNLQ

[19] = molecular target: DNA dC->dU-editing enzyme APOBEC-3G (Homo sapiens, UniProt Q9HC16); assay type: functional;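 further: Dose-response counterscreen measuring inhibition of APOBEC3G DNA deaminase activity, run while confirming APOBEC3A inhibitors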

With `CCn1c(=O)c(C(=O)CN2CCCc3ccccc32)c(N)n(Cc2ccccc2)c1=O` the CC50 [1] was 12.4 µM (active) and the EC50 (Troponin, cardiac muscle) was > 23.8 µM (inactive).
In the case of `C(=N\Nc1nncc2ccccc12)/c1ccccn1`, the AC50 [2] is reported as 0.478 µM (active), the EC50 (BJ [3]) is reported as 3.77 µM (active) and the AC50 [4] is reported as 4.65 µM (active). The AC50 (INS1) was 1.58 µM (active), the AC50 [5] was 4.38 µM (active) and the EC50 (BJ [6]) was 10.8 µM (inconclusive). The EC50 (Protein RecA) was 1.29 µM (active), the AC50 [7] was < 0.26 µM (active) and the IC50 (Nonstructural protein 1) was 4.45 µM (active). For the same compound, the EC50 (BJ [8]) was 4.42 µM (active), the EC50 [9] was 5.08 µM (inconclusive) and the AC50 [10] was 3.19 µM (active). The EC50 (BJ [11]) was 8.71 µM (inconclusive), the CC50 [12] was 6.58 µM (active) and the AC50 [13] was 4.9 µM (active).
With `COc1cccc(/C=N/Nc2nn3cnnc3c3ccccc23)c1O` the IC50 [14] was 20.6 µM (active), the IC50 [15] was > 50 µM (inactive) and the EC50 [16] was > 100 µM (inactive).
For `CC(=O)OCCCCCCCCCCC[N+]1(C)CCCCC1`, the IC50 [17] was 2.03 µM (active), the IC50 [18] was 14.1 µM (active) and the IC50 [19] was 2.17 µM (active).
